Here are results for one compound from patent publication US11590117B2, “Treatment of a hematologic malignancy with 2-(4-chlorophenyl)-n-((2-(2,6-dioxopiperidin-3-yl)-1-oxoisoindolin-5-yl)methyl)-2,2-difluoroacetamide” (priority 2016, dated 2023).

One may read the IC50 as the concentration that gives 50% inhibition.

The subject of experiment [1] is PBMCs. In words: CellTiter-Glo (CTG) cell proliferation assay, 72 hours, anti-CD3 stimulated. The class given is cell-based, human. The note with it: for IC50: Homo sapiens, PBMC. The method, then: Preparation of Solutions of Test Article: Compounds were plated into black 384-well plates (Corning Inc.) to a final DMSO volume of 0.1% assuming a maximal volume of 50 μL. A 10-point dose response starting at 10 μM with a 1:3 dilution was printed in duplicate by acoustic dispense using the EDC ATS-100 platform.
Cell Proliferation Assays: The effect of Compound 1 on the proliferation/viability of the hematological cell lines (Table 1 Table, Table 2 and Table 3), THLE-2, or PBMCs was assessed after 72 hours incubation using CTG (Promega), according to manufacturer's instructions. Hematological cell lines were dispensed into compound plates by a Multidrop™ Combi Reagent Dispenser (Thermo Scientific, Waltham, Mass.) at a concentration of 0.1 to 0.3×10^6 cells per mL in a 50 μL total volume. THLE-2 cells were seeded out at 1000 cells per well in 50 μL volume and incubated for 72 hours. At 72 hours, 25 μL per well of CTG was dispensed by a Multidrop™ Combi Reagent Dispenser and adenosine triphosphate (ATP) release by viable cells was measured as relative luminescence units after 30 minutes using the Envision platform.
For frozen PBMCs, cells were thawed at 37° C. for 2 minutes in RPMI with 10% FBS and cell counts and viability were measured on the ViCell as previously described. Peripheral blood mononuclear cells were washed and diluted to 1×10^6 cells per mL and dispensed by a Multidrop™ Combi Reagent Dispenser in a volume of 25 μL/well into the compound plates and incubated for 2 hours. After 2 hours, 25 μL of anti-CD3 antibody-bound beads (1 cell. 2 anti-human CD3 antibody-coated M-450 beads) were dispensed per well and incubated for a further 72 hours. After 72 hours, 15 μL of supernatants were collected for the analysis of interleukin (IL)-2 release using the Human IL-2 384-well Tissue Culture Kit (Meso Scale Diagnostics), according to the manufacturer's instructions, and the remaining cell suspension was processed with CTG.
In order to calculate the therapeutic window for Compound 1, the compound was counter-screened against the immortalized (but non-tumorigenic) human hepatocyte-derived cell line THLE-2 (Pfeifer, et al, Proc Natl Acad Sci USA 1993 90(11):5123-5127) and against primary human PBMCs. […] The Compound 1 therapeutic window for the 10 sensitive AML cell lines as compared to THLE-2 cells ranged from 4.1 (KG-1a) to 57 (HNT-34) (method 1) or from 5.7 (KG-1a) to 79.5 (HNT-34) (method 2); the Compound 1 therapeutic window as compared to PBMCs ranged from 2.6 (KG-1a) to 36 (HNT-34)), or from 1.5 (KG-1a) to 21 (HNT-34) (Table 6).
Cultures of 11 different AML cell lines were incubated 72 hours with Compound 1 at concentrations of 0.5 nM to 10 μM. Proliferation was assessed using the CellTitre-Glo® assay. Results for cultures incubated with Compound 1 were normalized to results for control cultures for each cell line. Inhibition of cell growth was also determined in THLE-2 cells at Compound 1 concentrations of 0.1 nM to 100 μM and in PBMCs at Compound 1 concentrations of 0.5 nM to […]. The Compound 1 therapeutic window was calculated using area under the curve (AUC; Activity Area [Barretina et al, Nature (2012) 483603-607] measurements (in arbitrary units) as determined using GraphPad Prism software for plots of cell proliferation vs concentration and dividing the AUC for the immortalized (but nontumorigenic) human THLE-2 hepatocyte cell line or PBMCs by the AUC for the AML cell line.
The effects of Compound 1 in healthy PBMCs were also assessed. Compound 1 was added to PBMC s from one donor at time zero and assessed at 72 hours. This was compared to PBMCs that were pre-activated and proliferating on anti-CD3 antibody-coated plates for 72 hours before Compound 1 was added and the cells were incubated for an additional 72 hours. HNT-34 cells were used as a sensitive positive control cell line. […]
In general terms: In ATP-based viability assays light output follows the ATP content of the culture.

The subject of experiment [2] is HR-MDS, sAML and normal bone marrow progenitors. In words: SL/M2 stromal co-culture colony replating assay (cell self-renewal assay). The class given is cell-based, human. The note with it: 1 nM and 10 nM; sAML and HR-MDS progenitors more than normal bone marrow progenitors. The method, then: Compound 1 at the indicated concentrations was added at the initiation of co-culture, with DMSO as a vehicle control. Colonies were scored to determine the effect of Compound 1 on cell survival (FIG. 36A) and self-renewal (FIG. 36B). ***, p<0.001, AML vs normal bone marrow controls treated with 1 nM of compound 1 (one-way ANOVA). **, p=0.01, AML vs normal bone marrow controls treated with 10 nM of Compound 1 (one-way ANOVA). Error bars represent mean values SD.
Methods. Mouse stromal cells SL/M2 stably expressing human interleukin-3 (IL-3), granulocyte colony stimulating factor (G-CSF) and stem cell factor (SCF) were cultured to confluency, followed by gamma-irradiation. Human CD34+ bone marrow cells isolated from 3 high-risk MDS patients (HR-MDS), 3 secondary AML patients arising from MDS (sAML) and 5 age-matched healthy donors were then cultured with inactivated SL/M2 cells for a week. Next, human progenitor cells were quantified by FACS and cells were plated in methylcellulose for colony forming assay (cell survival assay). After two weeks, 20-25 colonies were picked from each condition, resuspended and replated in fresh methylcellulose for 2nd round of colony forming assay (cell self-renewal assay).

Structures are written as SMILES. Read-outs that look alike come from different tables or passages of the source. Bounds are passed on as bounds.

`O=C1CCC(N2Cc3cc(CNC(=O)C(F)(F)c4ccc(Cl)cc4)ccc3C2=O)C(=O)N1` (stereo not shown) [Compound 1, 2-(4-chlorophenyl)-N-((2-(2,6-dioxopiperidin-3-yl)-1-oxoisoindolin-5-yl)methyl)-2,2-difluoroacetamide]: the IC50 was 100 nM in experiment [1] (72 h, PBMCs not pre-activated, 72 hours, read-out: CTG IC50); > 10000 nM in experiment [1] (72 h, pre-activated PBMCs (72 hours on anti-CD3 plates before compound), 72 hours, CTG and viable cell count, read-out: antiproliferative IC50); 120 nM in experiment [1] (72 h, primary human PBMCs, 72 hours, read-out: antiproliferative IC50); > 10000 nM in experiment [1] (pre-activated PBMCs, CTG and viable cell count, read-out: antiproliferative IC50). For the same compound, the “AUC Method 1” value in experiment [1] (PBMCs normal cells) is 251.1 arbitrary units. In experiment [1] (PBMCs normal cells), the “AUC Method 2” value is listed as 145.1 arbitrary units. In addition, the “colony replating (self-renewal)” value in experiment [2] is “significantly reduced the self-renewal”.
